This note sets out measurements from a melting point compilation (Tetko et al.; mined from patent text by program, amines drawn as free bases though some values may be those of a salt).

In general, melting point refers to the temperature, or range, at which the solid turns liquid. In turn, `CCOC(=O)CCC(=NOCc1ccc(OCc2nc(-c3ccccc3)oc2C)cc1)c1ccc(Oc2ccccc2)cc1` yielded a melting point of 118 to 119 °C. Take `COc1cc(OCC(=O)O)c(C)cc1SCc1ccc(-c2cccc(OC(F)(F)F)c2)cc1`: the melting point is 137 °C. Turning to `O=C(CNc1ccccc1)Nc1ccc(F)cc1C(=O)O`, the melting point lay in the range of 194 to 195 °C. For the molecule `N#CC(Cc1ccc(O)cc1)c1noc2cc(O)ccc12` (stereo unspecified), the melting point was found to be 214 °C.

`N#CN=C(Nc1cccnc1)NC(NC(=O)c1ccc(Cl)cc1)C(Cl)(Cl)Cl` (stereo unspecified) returned a melting point of 126 to 128 °C.

The molecule `Brc1cccc(C2Cc3cnc(Nc4ccc(CCN5CCOCC5)cc4)nc3-c3ccccc32)c1` (stereo unspecified) gave a melting point of 86 to 88 °C.

With `CC(C)Oc1ccc(C(=O)n2nc(Nc3ccc(O)cc3)nc2N)cc1`, the melting point was in the range of 229 to 234 °C. In the case of `COC(=O)c1ccc(N=Cc2ccc(OC)c(C34CC5CC(CC(C5)C3)C4)c2)cc1` it was 180 to 182 °C; in that of `Cc1nc2ccc3c(c2o1)OC(CN1CCC(O)(c2cccc(C(F)(F)F)c2)CC1)CO3` (stereo unspecified), 148 to 151 °C. In the case of `Cn1c(C(F)(F)F)cc(=O)n(-c2cc(S)c(Cl)cc2F)c1=O` it was 132 °C; in that of `Cn1c(C2CC2)nc2c(O[C@@H]3c4ccccc4C[C@H]3O)cc(C(=O)O)cc21` (relative stereo), 132 to 134 °C; in that of `CCS(=O)(=O)N(Cc1cccnc1)c1ccc(Oc2ccccc2)cc1`, 79 to 80 °C. The figure for `COC(=O)NN=Cc1nc(-c2cccc(C(F)(F)F)c2)[nH]c1C` is 251 to 252 °C; for `Cn1cc(S(C)(=O)=O)c(=O)c2ccc(C(F)(F)F)cc21` it is 300 to 301 °C. With `COC(=O)C1C(=O)Nc2cccc(C(F)(F)F)c2CC1c1ccc(OC)cc1` (stereo unspecified), the melting point fell in the range of 214 to 216 °C.

`Nc1nc(SSc2n[nH]c(N)n2)n[nH]1`: the melting point fell in the range of 250 to 256 °C. As for `CCOC(=O)c1sc2nc(C)c(CC)c(=O)n2c1C`, the melting point lay within 122 to 124 °C. In the case of `COc1cc(-c2cnc3[nH]cc(C(=O)C4(C)CCCC4)c3n2)cc(OC)c1OC` it was 244 to 246 °C; in that of `c1ccc(OCc2ccc3ccccc3n2)c(OCCCc2nnn[nH]2)c1`, 137 to 140 °C; in that of `N#Cc1cc(NC(=O)c2sc3ccccc3c2Cl)ccc1N1CCC(N2CCOCC2)CC1`, 227 to 228 °C.

`CC(C)(C)OC(=O)Nc1cc(-c2nnc(CCc3cccc(C(F)(F)F)c3)o2)ccn1` came in with a melting point of 256 to 257 °C. In the case of `O=C(NCc1ccccn1)Nc1cc(N2C(=O)COc3ccccc32)ccn1` it was 206 to 207 °C; in that of `O=C(O)c1cc2cc(Cl)ccc2nc1N[C@@H](Cc1ccc(O)cc1)C(=O)O`, 176 to 188 °C.

In the case of `CON=Cc1ccc2c(c1)ncn2-c1cccc(-c2ncccn2)c1`, the melting point was in the range of 158 to 159 °C. The molecule `CNC(=O)c1cc(F)cc(Cl)c1Oc1cccc(OC)c1C` had a melting point of 127 to 128 °C.

In turn, `CCn1c2ccc(C=O)cc2c2c3ccccc3ccc21` registered a melting point of 143 to 144 °C. In the case of `Cc1cc(C)nc(NCCN(C(C)C)C(C)C)n1` it was 79.5 to 82 °C; in that of `O=C(COc1ccccc1)NC1C(=O)NC1SCC(=O)C1CCCS1` (mixture of isomers), 123 °C. For `CCCN1CCC(c2ccccc2)=C(C(=O)NOCc2ccccc2)C1`, the melting point lay in the range of 143 to 145 °C. In the case of `COC(=O)c1ccc(OC(C)=O)c(-n2cccc2)c1` it was 49 to 51 °C; in that of `C=C(C)OC(=O)N1c2nc(C)ccc2NC(=S)C1C` (racemic), 120 to 121 °C. For `Cc1cc(-c2cnn3c(C(F)(F)F)cc(-c4ccc(C(F)(F)F)c(C)c4)nc23)ccn1`, the melting point is 237 °C.

As for `CCOC(=O)C1(c2ccc(OCc3ccccc3)cc2)CC2=C(C1)C(=O)C(OC)=C(OC)C2=O`, the melting point is 94 to 97 °C.

`CCC1CC(=O)c2c(NC(=O)C(=O)O)ccc(C)c21` (stereo unspecified) registered a melting point of 176 to 177 °C. For `CCc1ccc(S(=O)(=O)CC#N)cc1`, the melting point lay within 120 to 121 °C. In the case of `Cn1cc(-c2ccccc2)c(=S)c(-c2cccc(Cl)c2)c1` it was 190 to 193 °C.

`CCCCc1nc2c(N)nc3ccccc3c2n1CC1(O)CCOCC1` yielded a melting point of 235 to 236 °C.

Molecule `C[C@@H]1S[C@@H](C(=O)N(C)c2ccc(CN3CCOCC3)cc2)Cc2cc3c(cc2C1=O)OCO3` returned a melting point of 162 to 165 °C. The figure for `Cc1oc(-c2ccccc2)nc1COc1cccc(/C=C/C=O)c1` is 103 to 104 °C. In the case of `Cc1ccc(-c2cc3cc(C4=NNC(=O)CC4)ccc3[nH]2)cc1` it was 266 to 268 °C; in that of `C[Si](C)(C)c1ccc(-c2nccc3ccccc23)cc1`, 93.5 °C.

`Fc1ccccc1C1=CCc2nnc(-c3ccncc3)n2-c2ccc(Cl)cc21` yielded a melting point of 198 to 200 °C. The molecule `CCc1nn(C(C)C)c2cc(C(=O)Nc3c(Cl)cncc3Cl)ccc12` registered a melting point of 145 to 148 °C. The figure for `CCN(CC)c1ccc(C2(N(c3ccccc3)c3ccc(NC(C)=O)cc3)OC(=O)c3ccccc32)c(C)c1` (stereo unspecified) is 169 to 171 °C; for `O=C(O)CCCc1cc2nc(Cl)ccc2n1S(=O)(=O)c1cccc(C(F)(F)F)c1` it is 188 °C. In the case of `O=c1[nH]c2ccc(-c3cccc([N+](=O)[O-])c3)cc2o1` it was 280 to 281 °C. In the case of `Cc1cc(CCCOc2c(C)cc(-c3noc(C#N)n3)cc2C)on1` it was 93 to 94 °C; in that of `CCCCC(=O)OC1(C(=O)CCl)CCC2C3CC(C)C4CC(=O)CCC4(C)C3(F)C(=O)CC21C` (stereo unspecified), 67 to 72 °C. In turn, `CNC(=O)Oc1ccc(N=Cc2ccccc2O)c(C)c1` yielded a melting point of 156 to 157 °C. The figure for `CN1CCCC1CCNc1ncc2c(c1C#N)-c1ccccc1C(c1ccc(Cl)c(Cl)c1)C2` (stereo unspecified) is 131 to 134 °C; for `COc1cc(C(=O)NC2CC(C)(C)N(C)C(C)(C)C2)ccc1-c1cc2cc(Cl)c(Cl)cc2[nH]1` it is 260 °C; for `N#Cc1cc(-c2cc(C(F)F)c3c(-c4cccnc4)nn(C4CCCCO4)c3n2)ccc1N` (stereo unspecified) it is 140 °C. As for `COC(C)c1ccc(C(=O)O)cc1` (single isomer, unassigned; (+)), the melting point was in the range of 99 to 102 °C. In the case of `COC(=O)c1cc(Cl)cc2ccoc12` it was 144 to 145 °C. The figure for `C=C1N(Cc2ccccc2)C(=O)OC12CCN(Cc1ccccc1)CC2` is 113 to 114 °C; for `CCOC(=O)C(=O)Nc1sc(C(=O)OCC)c(C)c1[N+](=O)[O-]` it is 118 to 120 °C. The figure for `CCn1c(=O)n(-c2ccc(N3CCn4c3nc3cccnc34)cc2)c2ncccc21` is 255 to 256 °C. Molecule `O=C(NOCc1ccccc1)c1cc(F)c(Cl)nc1Cl` yielded a melting point of 176 to 177 °C. The figure for `CN(C)C(=S)SC(c1ccc(Cl)cc1Cl)C(C(c1ccc(Cl)cc1Cl)N(C)C)[N+](=O)[O-]` (stereo unspecified) is 152 to 154 °C; for `C#CCn1nc(-c2ccc(S(C)(=O)=O)cc2)c(-c2ccc(F)cc2)c1C(F)(F)F` it is 158 to 160 °C.

Regarding `CC(C)(C)SCC1(C(=O)O)Cc2ccccc2C1`, the melting point fell in the range of 158 to 163 °C. `CCOc1cc2c(cc1Cc1ccc3c(c1)OCO3)OCO2` gave a melting point of 44 °C. `c1cnc2c(c1)cc(-c1nnn[nH]1)c1nnnn12` had a melting point of 280 to 282 °C.

On to `CN(c1cccc2cc(C3=NCC(C)(CCN4CCOCC4)S3)[nH]c12)S(=O)(=O)c1cccs1` (stereo unspecified), for which the melting point lay within 154 to 155 °C. `CN(C)c1ccc(C=C2SC(N3CCCC3)=NC2=O)cc1-c1cc(F)c(O)c(C23CC4CC(CC(C4)C2)C3)c1` had a melting point of 294 to 298 °C.

Molecule `CC(SC1COC(c2cccc(C(=O)Nc3ccc(C#N)cc3)c2)OC1)C(O)(Cn1cncn1)c1ccc(F)cc1F` (stereo unspecified) registered a melting point of 105 °C. `O=Cc1ccc2c(c1)S(=O)(=O)c1ccccc1N2c1ccccc1` gave a melting point of 260 to 272 °C.

Regarding `COC(=O)Nc1c(C#N)cnn1-c1c(Cl)cc(SC(F)(F)F)cc1Cl`, the melting point worked out at 145 °C.

Take `O=C(Nc1cccc([N+](=O)[O-])c1)C(=O)N1CCC(Cc2ccccc2)CC1`: the melting point is 138 to 140 °C. The figure for `O=C(Nc1cnc2scnc2c1)c1cc2cc(F)ccc2n1Cc1cccc(F)c1` is 250 to 251 °C. The figure for `CCOC(=O)c1nc2scc(C(=O)O)c2c(=O)[nH]1` is 258 °C. The molecule `Cc1cccnc1CCOc1ccc(NC(=O)N(C)C)cc1` displayed a melting point of 123 to 125 °C. The figure for `Cc1cc(C)cc(Sc2c(C(C)C)c(=O)[nH]c(=O)n2CC#Cc2ccccc2)c1` is 113 to 115 °C; for `Cc1sc2c(Br)c3ccccc3c(-c3ccc(O)cc3)c2c1C` it is 165 to 168 °C; for `CCCS(=O)(=O)c1c(C)nn(-c2c(Cl)cc(C(F)(F)F)cc2Cl)c1N` it is 146 to 147 °C. The figure for `COc1ccc2c(c1)CN(c1ccc3sccc3c1)C2=O` is 183 to 186 °C. In the case of `COc1c(Cl)ccc(-c2cc(N)c(Cl)c(C(=O)NOCc3cncs3)n2)c1F` it was 179 to 181 °C; in that of `CNC(=O)c1cnc2cccc(C)n2c1=O`, 208 to 210 °C.

With `CC(=O)c1cc(Br)c(OCCCBr)c(Br)c1`, the melting point lay within 87 to 88 °C. Turning to `CCOC(=O)C(NC(=O)CCNC(=O)CO)C(=O)OCC`, the melting point lay in the range of 94.5 to 96 °C.

`CC(C)Nc1nc2c(F)c(Cl)c(Cl)cc2[nH]1`: the melting point lay within 212 to 215 °C. In the case of `CC(=O)OC1C(Oc2cc(C)cc(O)c2C(=O)CCc2ccc3occc3c2)OC(CO)C(O)C1O` (stereo unspecified) it was 160 °C; in that of `CC(C)(C)OC(=O)Nc1ccc(Cl)c(C(F)(F)F)c1`, 90 °C; in that of `COC(=O)c1cc(NS(C)(=O)=O)ccc1F`, 135 to 137 °C.

In turn, `COC(=O)[C@H](Cc1ccccc1)NC(=O)c1ccc(N)cc1` registered a melting point of 145 to 146 °C. In turn, `CC(C(=O)OCN1C(=O)CCC(N2C(=O)c3ccccc3C2=O)C1=O)N(C)C(=O)OC(C)(C)C` (stereo unspecified) displayed a melting point of 123 to 125 °C.
